Patent US20160051629A1, “INHIBITION OF RIP KINASES FOR TREATING LYSOSOMAL STORAGE DISEASES” (YEDA RESEARCH AND DEVELOPMENT CO. LTD., priority 2013, published 2016)

Assays:
[1] = in vivo; cited from earlier work
Gaucher disease mice = test: Anakinra (IL-1Ra) treatment of CBE-induced Gaucher disease mice; format: in vivo
Protocol: Mice were injected i.p. with 50 mg/kg/day CBE or CBE+IL-1Ra (Anakinra, 75 mg/kg) from 8 days of age. Body weight (FIG. 7A) and life span (FIG. 7B) of mice treated with either CBE only or CBE+Anakinara (n=3).
Gba^flox/flox; mice were crossed with Gba^flox/+; Nestin-Cre mice to generate Gba^flox/flox; Nestin-Cre mice (Enquist, I. B. et al. 2007. Proc. Natl. Acad. Sci. U.S.A. 104, 17483-17488) and Gba^flox/+; Nestin-Cre mice, which served as healthy controls. Genotyping was performed by PCR using genomic DNA extracted from mouse tails or embryonic brains (Farfel-Becker, T. et al. 2009. Hum. Mol. Genet. 18, 1482-1488). Both male and female mice were used. The colony was maintained in the experimental animal center of the Weizmann Institute of Science. All animal experiments were approved by the Weizmann Institute Institutional Animal Care and Use Committee. Mice deficient in galactocerebrosidase (the Twitcher mouse) were used as a model of Krabbe disease (Suzuki. K. & Taniike, M. 1995. Res. Tech. 32, 204-214), mice deficient in the β-subunit of β-hexosaminidase A and B were used as a model of Sandhoff disease (Sango, K. et al. 1995. Nat. Genet. 11, 170-176). Brains from a mouse model of the GM1 gangliosidosis (Hahn, C. N. et al. 1997. Hum. Mol. Genet. 6, 205-211), defective in lysosomal β-galactosidase, and from Niemann-Pick disease Type C1 mice (Pentchev, P. G. et al. 1984. J. Biol. Chem. 259, 5784-5791), defective in the NPC1 gene, were also used. Mice deficient in TNFα (strain B6; 129S6-Tnftm1Gkl/J, The Jackson Laboratory) were provided by Dr. David Wallach (Weizmann Institute, Israel). C57BL/6J (The Jackson Laboratory) mice were injected daily intraperitoneally with 50 mg CBE/kg body weight/day (Kanfer, J. N. et al. 1975. Biochem. Biophys. Res. Commun. 67, 85-90) or with phosphate-buffered saline from 8 days of age.

Row | Compound | crossing of the blood-brain barrier [1] | half-life [1] | clinical course of Gaucher disease mice (Gaucher disease mice; 50 mg/kg/day CBE i.p. + IL-1Ra (Anakinra, 75 mg/kg) from 8 days of age, FIG. 7) | gain weight (body weight) (Gaucher disease mice; CBE-treated mice, 50 mg/kg/day CBE i.p. + Anakinra 75 mg/kg from 8 days of age, vs CBE only, n=3, FIG. 7A) | life-span (Gaucher disease mice; CBE-treated mice, 50 mg/kg/day CBE i.p. + Anakinra 75 mg/kg from 8 days of age, vs CBE only, n=3, FIG. 7B)
1 | CN1C(=O)C(Cc2c[nH]c3ccccc23)NC1=S (centres unmarked) [Nec-1, necrostatin-1] | crosses the blood-brain barrier | ~1 h |  |  | 
2 | Anakinra: a recombinant, non-glycosylated version of human IL-1 receptor antagonist, sold under the trade name KINERET (Amgen) |  |  | improves the clinical course | improves gain weight | improves
